Key:
[1] = biological target: Gamma-aminobutyric acid receptor subunit alpha-6/beta-3/gamma-2 (Rattus norvegicus, UniProt P18508+P30191+P63079); assay: Modulation of rat alpha6beta3gamma2 GABA A receptor expressed in Xenopus oocytes assessed as reduction in desensitization at -80 mV holding potential by two-electrode voltage-clamp assay; format: cell-based
[2] = biological target: Gamma-aminobutyric acid receptor subunit alpha-6/beta-3/gamma-2 (Rattus norvegicus) (UniProt P18508+P30191+P63079); assay: Modulation of rat alpha6beta3gamma2 GABA A receptor expressed in Xenopus oocytes assessed as desensitization of GABA current at -80 mV holding potential at more than 300 uM by two-electrode voltage-clamp assay relative to control; format: cell-based; details: filed as modulator

Sequence of Gamma-aminobutyric acid receptor subunit alpha-6/beta-3/gamma-2 (P18508 whole entry): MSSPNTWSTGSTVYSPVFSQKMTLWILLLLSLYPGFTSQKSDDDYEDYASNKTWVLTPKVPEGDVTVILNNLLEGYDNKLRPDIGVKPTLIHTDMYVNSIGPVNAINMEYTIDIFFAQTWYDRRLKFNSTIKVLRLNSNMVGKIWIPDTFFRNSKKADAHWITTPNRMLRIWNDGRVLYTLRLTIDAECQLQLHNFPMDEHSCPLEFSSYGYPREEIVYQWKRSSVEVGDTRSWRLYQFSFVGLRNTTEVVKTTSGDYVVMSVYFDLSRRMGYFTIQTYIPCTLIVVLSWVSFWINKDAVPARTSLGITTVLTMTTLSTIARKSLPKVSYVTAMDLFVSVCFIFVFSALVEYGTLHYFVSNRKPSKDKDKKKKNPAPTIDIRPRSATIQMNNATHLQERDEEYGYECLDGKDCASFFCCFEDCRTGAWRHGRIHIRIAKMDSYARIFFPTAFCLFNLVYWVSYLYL
Sequence of Gamma-aminobutyric acid receptor subunit alpha-6/beta-3/gamma-2 (P30191 whole entry): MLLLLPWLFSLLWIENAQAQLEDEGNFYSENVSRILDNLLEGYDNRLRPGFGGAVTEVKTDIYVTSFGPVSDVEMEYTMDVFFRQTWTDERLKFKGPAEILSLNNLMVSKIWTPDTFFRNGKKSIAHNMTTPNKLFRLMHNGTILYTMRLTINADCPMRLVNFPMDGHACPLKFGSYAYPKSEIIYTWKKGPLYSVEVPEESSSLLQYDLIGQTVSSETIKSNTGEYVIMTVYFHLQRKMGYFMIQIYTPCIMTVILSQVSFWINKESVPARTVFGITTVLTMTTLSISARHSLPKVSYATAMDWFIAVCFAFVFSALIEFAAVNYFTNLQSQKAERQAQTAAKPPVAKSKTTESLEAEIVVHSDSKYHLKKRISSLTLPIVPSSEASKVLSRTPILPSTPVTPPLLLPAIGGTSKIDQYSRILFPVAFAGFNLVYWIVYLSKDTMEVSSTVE
Sequence of Gamma-aminobutyric acid receptor subunit alpha-6/beta-3/gamma-2 (P63079 whole entry): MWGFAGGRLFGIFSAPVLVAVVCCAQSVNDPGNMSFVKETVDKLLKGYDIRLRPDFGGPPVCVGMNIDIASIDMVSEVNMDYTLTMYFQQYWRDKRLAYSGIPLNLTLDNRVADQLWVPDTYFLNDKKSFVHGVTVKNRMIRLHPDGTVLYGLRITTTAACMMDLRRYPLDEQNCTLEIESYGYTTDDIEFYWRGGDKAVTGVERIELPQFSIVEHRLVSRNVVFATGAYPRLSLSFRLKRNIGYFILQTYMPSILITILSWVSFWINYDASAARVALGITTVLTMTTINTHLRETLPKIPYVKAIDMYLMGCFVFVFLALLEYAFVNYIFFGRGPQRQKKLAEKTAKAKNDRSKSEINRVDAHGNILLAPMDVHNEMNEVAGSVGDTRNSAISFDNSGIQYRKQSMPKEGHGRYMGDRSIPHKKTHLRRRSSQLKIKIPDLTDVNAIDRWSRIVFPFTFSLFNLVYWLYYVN

## Cc1ccc(C(C)(C)CC#N)c(Cl)c1
[1]
  EC50: 28 µM
[2]
  Activity: 1360%

## Cc1ccc(C(C)CC#N)c(Cl)c1 (racemic)
[1]
  EC50: 38 µM
[2]
  Activity: 600%

## Cl/C(=C\n1cncn1)c1ccc(Cl)cc1Cl [LORECLEZOLE]
[1]
  EC50: 38 µM
[2]
  Activity: 600%
